Assay [1] has as its system A/PR/8/34 influenza virus. Kind of assay: microbe, parasite or virus in culture. The settings on record: Influenza A virus, PR/8, MDCK, read-out: EC50 (mean all). It counts as cell-based.
The subject of assay [2] is influenza A virus (A/PR/8/34). Kind of assay: microbe, parasite or virus in culture. The assay is classed as cell-based. The settings on record: Influenza A virus, PR/8, MDCK, read-out: IC50 (mean all).
The mark [3] stands for this setting: MDCK cells infected with A/PR/8/34, bDNA viral RNA.
[4] abbreviates: MDCK cells infected with A/PR/8/34, cell protection (CPE).

We go through 26 molecules from patent US8829007B2 (priority 2009, dated 2014).

pEC50, pIC50: −log10 of the molar value. Read-outs that look alike come from different tables or passages of the source.

As usually defined, the pEC50 is the EC50 on a negative log10 scale, so that one unit is a factor of ten. As usually defined, the pIC50 is the negative decadic logarithm of the IC50, by convention in mol/L. Regarding `O=C(c1ccco1)N1CCC[C@H](CNc2nc(-c3c[nH]c4ncc(Cl)cc34)ncc2F)C1` [Compound 102, (R)-(3-((2-(5-chloro-1H-pyrrolo[2,3-b]pyridin-3-yl)-5-fluoropyrimidin-4-ylamino)methyl)piperidin-1-yl)(furan-2-yl)methanone], in assay [1] (setting [3]), the pEC50 is over 5.30. In addition, the pIC50 in assay [2] (setting [4]) was over 5.30.
Consider `O=C(Cc1cccs1)N1CCC[C@H](CNc2nc(-c3c[nH]c4ncc(Cl)cc34)ncc2F)C1` [Compound 104, (R)-1-(3-((2-(5-chloro-1H-pyrrolo[2,3-b]pyridin-3-yl)-5-fluoropyrimidin-4-ylamino)methyl)piperidin-1-yl)-2-(thiophen-2-yl)ethanone], for which the negative logarithm of the EC50 (pEC50) in assay [1] (setting [3]) was over 5.30. For the same molecule, in assay [2] (setting [4]), the pIC50 is over 5.30.
`CC(C)(C)C(=O)N1CCC[C@H](CNc2nc(-c3c[nH]c4ncc(Cl)cc34)ncc2F)C1` [Compound 105, (R)-1-(3-((2-(5-chloro-1H-pyrrolo[2,3-b]pyridin-3-yl)-5-fluoropyrimidin-4-ylamino)methyl)piperidin-1-yl)-2,2-dimethylpropan-1-one]: the pEC50 in assay [1] (setting [3]) is over 5.30. Further, the negative-log IC50 (pIC50) in assay [2] (setting [4]) is over 5.30.
Regarding `O=C(COCc1ccccc1)N1CCC[C@H](CNc2nc(-c3c[nH]c4ncc(Cl)cc34)ncc2F)C1` [Compound 106, (R)-2-(benzyloxy)-1-(3-((2-(5-chloro-1H-pyrrolo[2,3-b]pyridin-3-yl)-5-fluoropyrimidin-4-ylamino)methyl)piperidin-1-yl)ethanone], the pEC50 in assay [1] (setting [3]) is over 5.30. Moreover, the pIC50 in assay [2] (setting [4]) was over 5.30.
Regarding `O=C(c1cc2ccccc2s1)N1CCC[C@H](CNc2nc(-c3c[nH]c4ncc(Cl)cc34)ncc2F)C1` [Compound 107, (R)-benzo[b]thiophen-2-yl(3-((2-(5-chloro-1H-pyrrolo[2,3-b]pyridin-3-yl)-5-fluoropyrimidin-4-ylamino)methyl)piperidin-1-yl)methanone], the pEC50 in assay [1] (setting [3]) is over 5.30. In assay [2] (setting [4]), the negative logarithm of the IC50 (pIC50) was over 5.30.
For `COc1ccc(C(=O)N2CCC[C@H](CNc3nc(-c4c[nH]c5ncc(Cl)cc45)ncc3F)C2)cc1OC` [Compound 109, (R)-(3-((2-(5-chloro-1H-pyrrolo[2,3-b]pyridin-3-yl)-5-fluoropyrimidin-4-ylamino)methyl)piperidin-1-yl)(3,4-dimethoxyphenyl)methanone], in assay [1] (setting [3]), the pEC50 was over 5.30. Moreover, the pIC50 in assay [2] (setting [4]) is over 5.30.
In the case of `CC(=O)OCC(=O)N1CCC[C@H](CNc2nc(-c3c[nH]c4ncc(Cl)cc34)ncc2F)C1` [Compound 110, (R)-2-(3-((2-(5-chloro-1H-pyrrolo[2,3-b]pyridin-3-yl)-5-fluoropyrimidin-4-ylamino)methyl)piperidin-1-yl)-2-oxoethyl ethanoate], in assay [1] (setting [3]), the pEC50 was over 5.30. Also, in assay [2] (setting [4]), the negative logarithm of the IC50 (pIC50) was over 5.30.
`CC(=O)N1CCC[C@H](CNc2nc(-c3c[nH]c4ncc(Cl)cc34)ncc2F)C1` [Compound 111, (R)-1-(3-((2-(5-chloro-1H-pyrrolo[2,3-b]pyridin-3-yl)-5-fluoropyrimidin-4-ylamino)methyl)piperidin-1-yl)ethanone]: the pEC50 in assay [1] (setting [3]) is over 5.30. For the same molecule, the negative logarithm of the IC50 (pIC50) in assay [2] (setting [4]) was over 5.30.
As to `CNc1ccccc1C(=O)N1CCC[C@H](CNc2nc(-c3c[nH]c4ncc(Cl)cc34)ncc2F)C1` [Compound 112, (R)-(3-((2-(5-chloro-1H-pyrrolo[2,3-b]pyridin-3-yl)-5-fluoropyrimidin-4-ylamino)methyl)piperidin-1-yl)(2-(methylamino)phenyl)methanone], the negative logarithm of the EC50 (pEC50) in assay [1] (setting [3]) was over 5.30. Also, the negative logarithm of the IC50 (pIC50) in assay [2] (setting [4]) is over 5.30.
Regarding `COc1ccccc1C(=O)N1CCC[C@H](CNc2nc(-c3c[nH]c4ncc(Cl)cc34)ncc2F)C1` [Compound 113, (R)-(3-((2-(5-chloro-1H-pyrrolo[2,3-b]pyridin-3-yl)-5-fluoropyrimidin-4-ylamino)methyl)piperidin-1-yl)(2-methoxyphenyl)methanone], the pEC50 in assay [1] (setting [3]) is over 5.30. In addition, the pIC50 in assay [2] (setting [4]) was over 5.30.
For the molecule `C=CCOC(=O)N1CCC[C@H](CNc2nc(-c3c[nH]c4ncc(Cl)cc34)ncc2F)C1` [Compound 119, (R)-allyl 3-((2-(5-chloro-1H-pyrrolo[2,3-b]pyridin-3-yl)-5-fluoropyrimidin-4-ylamino)methyl)piperidine-1-carboxylate], the pEC50 in assay [1] (setting [3]) is over 5.30. Further, in assay [2] (setting [4]), the pIC50 was over 5.30.
Turning to `Cc1cc(NC(=O)N2CCC[C@H](CNc3nc(-c4c[nH]c5ncc(Cl)cc45)ncc3F)C2)c(C(F)(F)F)o1` [Compound 120, (R)-3-((2-(5-chloro-1H-pyrrolo[2,3-b]pyridin-3-yl)-5-fluoropyrimidin-4-ylamino)methyl)-N-(5-methyl-2-(trifluoromethyl)furan-3-yl)piperidine-1-carboxamide], the pEC50 in assay [1] (setting [3]) was over 5.30. In addition, the negative-log IC50 (pIC50) in assay [2] (setting [4]) is over 5.30.
In the case of `C#CCOC(=O)N1CCC[C@H](CNc2nc(-c3c[nH]c4ncc(Cl)cc34)ncc2F)C1` [Compound 122, (R)-prop-2-ynyl 3-((2-(5-chloro-1H-pyrrolo[2,3-b]pyridin-3-yl)-5-fluoropyrimidin-4-ylamino)methyl)piperidine-1-carboxylate], in assay [1] (setting [3]), the pEC50 was over 5.30. Also, in assay [2] (setting [4]), the negative logarithm of the IC50 (pIC50) was over 5.30.
For the molecule `Fc1cnc(-c2c[nH]c3ncc(Cl)cc23)nc1NC[C@H]1CCCN(c2ncccn2)C1` [Compound 124, (R)-2-(5-chloro-1H-pyrrolo[2,3-b]pyridin-3-yl)-5-fluoro-N-((1-(pyrimidin-2-yl)piperidin-3-yl)methyl)pyrimidin-4-amine], the negative-log EC50 (pEC50) in assay [1] (setting [3]) is over 5.30. For the same molecule, the pIC50 in assay [2] (setting [4]) is over 5.30.
For `O=C(OCCF)N1CCC[C@H](CNc2nc(-c3c[nH]c4ncc(Cl)cc34)ncc2F)C1` [Compound 126, (R)-2-fluoroethyl 3-((2-(5-chloro-1H-pyrrolo[2,3-b]pyridin-3-yl)-5-fluoropyrimidin-4-ylamino)methyl)piperidine-1-carboxylate], the negative logarithm of the EC50 (pEC50) in assay [1] (setting [3]) is over 5.30. The negative-log IC50 (pIC50) in assay [2] (setting [4]) was over 5.30.
As to `CC#CCOC(=O)N1CCC[C@H](CNc2nc(-c3c[nH]c4ncc(Cl)cc34)ncc2F)C1` [Compound 127, (R)-but-2-ynyl 3-((2-(5-chloro-1H-pyrrolo[2,3-b]pyridin-3-yl)-5-fluoropyrimidin-4-ylamino)methyl)piperidine-1-carboxylate], the pEC50 in assay [1] was over 5.30. For the same molecule, in assay [2], the pIC50 was over 5.30.
Regarding `CC(C)(C)NC(=O)N1CCC[C@H](CNc2nc(-c3c[nH]c4ncc(Cl)cc34)ncc2F)C1` [Compound 128, (R)—N-tert-butyl-3-((2-(5-chloro-1H-pyrrolo[2,3-b]pyridin-3-yl)-5-fluoropyrimidin-4-ylamino)methyl)piperidine-1-carboxamide], the negative-log EC50 (pEC50) in assay [1] (setting [3]) is over 5.30. In addition, the negative logarithm of the IC50 (pIC50) in assay [2] (setting [4]) was over 5.30.
Consider `O=C(Nc1cccs1)N1CCC[C@H](CNc2nc(-c3c[nH]c4ncc(Cl)cc34)ncc2F)C1` [Compound 129, (R)-3-((2-(5-chloro-1H-pyrrolo[2,3-b]pyridin-3-yl)-5-fluoropyrimidin-4-ylamino)methyl)-N-(thiophen-2-yl)piperidine-1-carboxamide], for which the negative-log EC50 (pEC50) in assay [1] (setting [3]) was over 5.30. Moreover, the pIC50 in assay [2] (setting [4]) was over 5.30.
Regarding `COC(=O)NC(=O)N1CCC[C@H](CNc2nc(-c3c[nH]c4ncc(Cl)cc34)ncc2F)C1` [Compound 131, (R)-methyl 3-((2-(5-chloro-1H-pyrrolo[2,3-b]pyridin-3-yl)-5-fluoropyrimidin-4-ylamino)methyl)piperidine-1-carbonylcarbamate], the pEC50 in assay [1] (setting [3]) was over 5.30. Besides, the negative logarithm of the IC50 (pIC50) in assay [2] (setting [4]) is over 5.30.
`O=C(c1cc(F)cc2c1OCOC2)N1CCC[C@H](CNc2nc(-c3c[nH]c4ncc(Cl)cc34)ncc2F)C1` [Compound 142, (R)-(3-((2-(5-chloro-1H-pyrrolo[2,3-b]pyridin-3-yl)-5-fluoropyrimidin-4-ylamino)methyl)piperidin-1-yl)(6-fluoro-4H-benzo[d][1,3]dioxin-8-yl)methanone]: in assay [1] (setting [3]), the pEC50 was over 5.30. Further, the negative-log IC50 (pIC50) in assay [2] (setting [4]) is over 5.30.
On to `Cc1ccccc1C(=O)N1CCC[C@H](CNc2nc(-c3c[nH]c4ncc(Cl)cc34)ncc2F)C1` [Compound 143, (R)-(3-((2-(5-chloro-1H-pyrrolo[2,3-b]pyridin-3-yl)-5-fluoropyrimidin-4-ylamino)methyl)piperidin-1-yl)(o-tolyl)methanone], for which the pEC50 in assay [1] (setting [3]) was over 5.30. Moreover, in assay [2] (setting [4]), the negative-log IC50 (pIC50) is over 5.30.
Regarding `O=C(c1ccc2c(c1)OCC2)N1CCC[C@H](CNc2nc(-c3c[nH]c4ncc(Cl)cc34)ncc2F)C1` [Compound 145, (R)-(3-((2-(5-chloro-1H-pyrrolo[2,3-b]pyridin-3-yl)-5-fluoropyrimidin-4-ylamino)methyl)piperidin-1-yl)(2,3-dihydrobenzofuran-6-yl)methanone], in assay [1] (setting [3]), the pEC50 was over 5.30. Also, the pIC50 in assay [2] (setting [4]) is over 5.30.
In the case of `O=C(c1ccccc1C(F)(F)F)N1CCC[C@H](CNc2nc(-c3c[nH]c4ncc(Cl)cc34)ncc2F)C1` [Compound 146, (R)-(3-((2-(5-chloro-1H-pyrrolo[2,3-b]pyridin-3-yl)-5-fluoropyrimidin-4-ylamino)methyl)piperidin-1-yl)(2-(trifluoromethyl)phenyl)methanone], the pEC50 in assay [1] (setting [3]) is over 5.30. Moreover, the negative logarithm of the IC50 (pIC50) in assay [2] (setting [4]) was over 5.30.
As for `O=C(c1ccc(Cl)cc1Cl)N1CCC[C@H](CNc2nc(-c3c[nH]c4ncc(Cl)cc34)ncc2F)C1` [Compound 147, (R)-(3-((2-(5-chloro-1H-pyrrolo[2,3-b]pyridin-3-yl)-5-fluoropyrimidin-4-ylamino)methyl)piperidin-1-yl)(2,4-dichlorophenyl)methanone], the pEC50 in assay [1] (setting [3]) was over 5.30. The pIC50 in assay [2] (setting [4]) is over 5.30.
As to `COc1c(C)cccc1C(=O)N1CCC[C@H](CNc2nc(-c3c[nH]c4ncc(Cl)cc34)ncc2F)C1` [Compound 148, (R)-(3-((2-(5-chloro-1H-pyrrolo[2,3-b]pyridin-3-yl)-5-fluoropyrimidin-4-ylamino)methyl)piperidin-1-yl)(2-methoxy-3-methylphenyl)methanone], in assay [1] (setting [3]), the negative-log EC50 (pEC50) was over 5.30. For the same molecule, the negative logarithm of the IC50 (pIC50) in assay [2] (setting [4]) was over 5.30.
In the case of `O=C(c1cc(F)ccc1F)N1CCC[C@H](CNc2nc(-c3c[nH]c4ncc(Cl)cc34)ncc2F)C1` [Compound 151], the pEC50 in assay [1] (setting [3]) is over 5.30. Besides, the negative-log IC50 (pIC50) in assay [2] (setting [4]) is over 5.30.
